Assay results as given in patent US20090176888A1, “COMPOSITION COMPRISING PHYTOSPHINGOSINE OR DERIVATIVE THEREOF” (KOREA INSTITUTE OF RADIOLOGICAL & MEDICAL SCIENCES, priority 2003, published 2009).

What was measured:
[1] = tested on: caspases in human lung cancer cells; assay: Western blotting of caspase-3, caspase-8, caspase-9 and PARP; format: cell-based; conditions: 10 μg/ml phytosphingosine, FIG. 10
Method: (§1) Human lung cancer cells and blood cancer cells were cultured under the same condition as in the apoptosis test and were treated with 10 ml of phytosphingosine (10 μg/ml of phytosphingosine for lung cancer cells, and 5 μg/ml and 10 μg/ml of phytosphingosine for blood cancer cells). Then, the analysis of mitochondrial membrane potential and western blotting was carried out. Phytosphingosine-treated human lung cancer cells and blood cancer cells were dissolved in a protease inhibitor-containing lysis buffer (40 mM Tris-Cl (pH 8.0), 120 mM NaCl, 0.1% […]) and centrifuged to give a protein extract. Pure proteins were isolated from the protein extract using SDS-PAGE and transferred to a nitrocellulose membrane. The protein-bound nitrocellulose membrane was blocked with skim milk and incubated with as caspase-3, caspase-8, caspase-9, and poly(ADP-ribose)polymerase (PARP) as primary antibodies at room temperature for one hour. The primary antibodies-bound nitrocellulose membranes were three times washed with PBS-T (phosphate buffered saline, 0.1% Tween-20) and incubated with HRP (Horse Radish Peroxidase)-conjugated secondary antibodies for one hour. The expression of caspase-3, caspase-8, caspase-9, and PARP was detected using ECL reagent (PerkinElmer Life Science, Inc.).

[2] = tested on: caspases in human blood cancer cells; assay: as above; format: cell-based; conditions: 5 and 10 μg/ml phytosphingosine, FIG. 10
Method: as §1

Dermal irritation test = format: in vivo; conditions: rabbits
Excerpt: Royal Gist-Brocades N.V. (Netherlands) was asked to perform tests for acute oral toxicity and dermal irritation, and Ames tests of phytosphingosine and derivatives thereof.

[3] = tested on: human breast cancer cells (MDA-MB-231); assay: Apoptosis test (Sub G1, propidium iodide, flow cytometry); format: cell-based
Method: (§2) Cancer cells as used in the experiment were human lung cancer cells (NCI-H460, Korean Cell Line Bank), human breast cancer cells (MDA-MB-231, American Type Culture Collection (ATCC)), human uterine cervical cancer cells (HeLa, Korean Cell Line Bank), and blood cancer cells (Jurkat, ATCC). These cancer cells were cultured in RPMI 1640 media containing 10% FBS, penicillin, and streptomycin (GIBCO BRL). The apoptosis tests were carried out at human lung cancer cells, breast cancer cells, uterine cervical cancer cells, and blood cancer cells as follows: Phytosphingosine or a derivative thereof was dissolved in DMSO. Samples of the resultant solution of different concentration levels (1, 2, 5, 10, 15, 20 μg/ml) were prepared. According to the following treatment schedule, phytosphingosine treated cancer cells were cultured, washed with PBS (phosphate buffered saline), and fixed with 70% ethanol. The fixed cells were again washed with PBS, suspended in PBS, and 1 mg/ml of RNase was added thereto. Then, DNA was stained with 50 μg/ml of propidium iodide fluorescent dye and the change in the Sub G1 was analyzed by flow cytometry (Becton DICKINSON). The Sub G1, a marker of apoptotic cell death, means DNA distribution lower than that in the G1 phase of cell cycle. (1-1) In order to determine an anticancer effect of phytosphingosine, 5 ml of 10 μg/ml of phytosphingosine was added to respective dishes containing lung cancer cells, breast cancer cells, uterine cervical cancer cells, and blood cancer cells. (1-2) In order to examine a correlation of an anticancer effect with the phytosphingosine concentration and post-treatment culture time, each 5 ml of 2, 5, 10, and 15 μg/ml of phytosphingosine was added to respective human uterine cervical cancer cell-containing dishes and human breast cancer cell-containing dishes. In addition, each 5 ml of 5, 10, 15, and 20 μg/ml of phytosphingosine was added to respective human lung cancer cell-containing dishes, and each 5 ml of 1, 5, 10, and 20 μg/ml of phytosphingosine was added to respective human blood cancer cell-containing dishes.

[4] = tested on: human uterine cervical cancer cells (HeLa); assay: as above; format: cell-based
Method: as §2

[5] = tested on: human uterine cervical cancer cells (NCI-H460 cells); assay: In vivo animal test, tumor volume in transplanted nude mice (phytosphingosine alone); conditions: FIG. 11
Method: Nude mice (body weight: about 20 g) were randomized into 2 groups: a first group is for a control group and a second group is for treatment with phytosphingosine. The femoral region of the nude mice was transplanted with human uterine cervical cancer cells ([…]). Then, tumor volume was allowed to reach a level of […]. A 50 mg/kg solution of phytosphingosine in an olive oil was orally administered to the second group for one week on a daily basis.

human blood cancer cells = assay: Analysis of mitochondrial membrane potential and cytochrome c release; format: cell-based; conditions: 5 and 10 μg/ml phytosphingosine
Method: Human lung cancer cells and blood cancer cells were cultured under the same condition as in the apoptosis test and were treated with 10 ml of phytosphingosine (10 μg/ml of phytosphingosine for lung cancer cells, and 5 μg/ml and 10 μg/ml of phytosphingosine for blood cancer cells). Then, the analysis of mitochondrial membrane potential and western blotting was carried out. Mitochondria were stained with 30 nM of a specific DioC6(3) dye (Calbiochem) for 30 minutes and culture media were removed. Then, lung cancer cells were twice washed with PBS and the membrane potential was analyzed by flow cytometry.

human lung cancer cells = assay: Colony formation test in combination with radiation; format: cell-based; conditions: FIG. 12
Method: Colony formation tests were carried out in human lung cancer cells, breast cancer cells, and uterine cervical cancer cells as follows:
Respective sphingosine, phytosphingosine, C6PS, and C8PS were dissolved ethanol to produce specimens. About 600 cells (for each cancer) were plated in a dish with a diameter of 60 mm and incubated in a CO2 incubator at 37° C. for a day. Then, the cancer cells were treated with the specimens in combination with radiation and were continuously cultured. When suitable colonies were formed, the cancer cells were fixed with a fixing solution (methanol/acetic acid=3:1) and stained with trypan blue. Then, the number of the colonies was counted and the results were evaluated in a comparative manner.

[6] = 10 μg/ml phytosphingosine, test (1-1), FIG. 1

Which “activities of the caspases” value [1] does the source give for `CCCCCCCCCCCCCC[C@@H](O)[C@@H](O)[C@@H](N)CO` [phytosphingosine] here?
The value was “considerably increased”.

And the “activities of the caspases” value [2]?
The value was “considerably increased”.

And the dermal irritation (Dermal irritation test)?
Its dermal irritation is “did not cause dermal damages”.

And the apoptosis ([3]; 10 μg/ml or more, culture of 12 hours or more, FIG. 4)?
Its apoptosis is ≥ 50%.

What about the “anticancer effect compared to untreated cancer cells” value [3, 6] of the same compound?
The value was “excellent anticancer effects”.

And the apoptosis ([3]; 10 μg/ml, at 12 hours after treatment)?
The apoptosis was 50%.

What about the “anticancer effect compared to untreated cancer cells” value [4, 6] of the same compound?
The value was “excellent anticancer effects”.

And the apoptosis ([4]; 15 μg/ml or more, culture of 12 hours or more, FIG. 3)?
The apoptosis was ≥ 50%.

And the apoptosis ([4]; 15 μg/ml, at 12-18 hours after treatment)?
Its apoptosis is 50%.

And the “inhibitory effect on tumor growth compared to control group” value ([5]; 50 mg/kg/day oral for one week, at the 40th day)?
The value was “potent inhibitory effect on tumor growth”.

What about the tumor size change ([5]; 50 mg/kg/day oral in olive oil for one week, versus control group) of the same compound?
The tumor size change was “did not show changes for 20 days”.

And the mitochondrial membrane potential (human blood cancer cells)?
Its mitochondrial membrane potential is “decreased”.

What about the “release of cytochrome c from mitochondria” value (human blood cancer cells) of the same compound?
The value was “increased”.

What about the “reduction of tumor growth, concurrent treatment vs radiation, sphingosine or PS alone” value (human lung cancer cells; PS in combination with radiation) of the same compound?
The value was ≥ 30%.

And the “sensitizer enhancement ratio (SER)” value (human lung cancer cells; in combination with radiation)?
Its value is 1.21.
